Results on 23 compounds are retold here after patent US8487108B2, “Piperidinyl carbamate intermediates for the synthesis of aspartic protease inhibitors” (Vitae Pharmaceuticals, Inc., priority 2005, dated 2013).

As usually defined, the IC50 is the concentration needed to halve the response being measured.

The test addresses T1, trypsin-activated recombinant human renin (Homo sapiens, UniProt P00797).
T1 sequence (P00797 67-406): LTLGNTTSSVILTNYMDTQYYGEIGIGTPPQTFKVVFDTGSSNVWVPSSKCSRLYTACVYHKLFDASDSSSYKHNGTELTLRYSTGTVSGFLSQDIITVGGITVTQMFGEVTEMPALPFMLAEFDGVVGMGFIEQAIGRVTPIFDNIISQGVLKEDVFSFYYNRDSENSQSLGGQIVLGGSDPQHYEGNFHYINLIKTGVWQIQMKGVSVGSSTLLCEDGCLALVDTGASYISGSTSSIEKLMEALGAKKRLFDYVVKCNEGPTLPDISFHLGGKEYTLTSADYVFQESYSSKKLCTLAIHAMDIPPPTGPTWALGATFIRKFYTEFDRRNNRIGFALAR
Description: Renin fluorescence assay (internally quenched peptide substrate). It is filed as biochemical. The following applies: compounds I*. Here is the method: The sequence of this peptide corresponds to the sequence of human angiotensinogen. The following test protocol can be used. All reactions are carried out in a flat bottom white opaque microtiter plate. A 4 μL aliquot of 400 μM renin substrate (DABCYL-γ-[…]) in 192 μL assay buffer (50 mM BES, 150 mM NaCl, 0.25 mg/mL bovine serum albumin, pH7.0) is added to 4 μL of test compound in DMSO at various concentrations ranging from 10 μM to 1 nM final concentrations. Next, 100 μL of trypsin-activated recombinant human renin (final enzyme concentration of 0.2-2 nM) in assay buffer is added, and the solution is mixed by pipetting. The increase in fluorescence at 495 nm (excitation at 340 nm) is measured for 60-360 minutes at rt using a Perkin-Elmer Fusion microplate reader. The slope of a linear portion of the plot of fluorescence-increase as a function of time is then determined, and the rate is used for calculating percent inhibition in relation to uninhibited control. […] (Wang G. T. et al. Anal. Biochem. 1993, 210, 351; Nakamura, N. et al. J. Biochem. (Tokyo) 1991, 109, 741; Murakami, K. et al. Anal Biochem. 1981, 110, 232).
As for `CNC[C@H](CCCOC)NC(=O)N1CCC[C@@H]([C@@H](OCCNC(=O)OC)c2cccc(Cl)c2)C1` [I*-1a], the concentration for half-maximal inhibition (IC50) was more than 50 nM.
In the case of `CNC[C@H](C[C@H]1CCCCOC1)NC(=O)N1CCC[C@@H]([C@@H](OCCNC(=O)OC)c2cc(F)ccc2C)C1` [I*-79a, methyl 2-((R)-(5-fluoro-2-methylphenyl)((R)-1-((S)-1-(methylamino)-3-((R)-oxepan-3-yl)propan-2-ylcarbamoyl)piperidin-3-yl)methoxy)ethylcarbamate], the IC50 is less than 10 nM.
As for `CNC[C@H](C[C@H]1CCCC[C@@H]1O)NC(=O)N1CCC[C@@H]([C@@H](OCCNC(=O)OC)c2cccc(Cl)c2)C1` (relative stereo) [I*-105a, methyl 2-((R)-(3-chlorophenyl)((R)-1-((S)-1-((1R,2S)-2-hydroxycyclohexyl)-3-(methylamino)propan-2-ylcarbamoyl)piperidin-3-yl)methoxy)ethylcarbamate], the IC50 was less than 10 nM.
`CNC[C@H](CC1CCC(O)CC1)NC(=O)N1CCC[C@@H]([C@@H](OCCNC(=O)OC)c2cccc(Cl)c2)C1` (stereo partly drawn) [I*-102a, methyl 2-((R)-(3-chlorophenyl)((R)-1-((S)-1-(4-hydroxycyclohexyl)-3-(methylamino)propan-2-ylcarbamoyl)piperidin-3-yl)methoxy)ethylcarbamate]: the IC50 is less than 50 nM.
With `CNC[C@H](CC12CC3CC(CC(C3)C1)C2)NC(=O)N1CCC[C@@H]([C@@H](OCCNC(=O)OC)c2cccc(F)c2)C1` [I*-145a, methyl 2-((R)-((R)-1-((S)-1-(1-adamantyl)-3-(methylamino)propan-2-ylcarbamoyl)piperidin-3-yl)(3-fluorophenyl)methoxy)ethylcarbamate], the IC50 was less than 10 nM.
As for `CNC[C@H](CC1CCCCC1)NC(=O)N1CCC[C@@H]([C@@H](OCCNC(=O)OC)c2cccc(C)c2)C1` [I*-18a, methyl 2-((R)-((R)-1-((S)-1-cyclohexyl-3-(methylamino)propan-2-ylcarbamoyl)piperidin-3-yl)(m-tolyl)methoxy)ethylcarbamate], the IC50 is less than 1 nM.
For `CNC[C@H](CC1CCC(O)CC1)NC(=O)N1CCC[C@@H]([C@@H](OCCNC(=O)OC)c2cccc(F)c2)C1` (stereo partly drawn) [I*-51a, methyl 2-((R)-(3-fluorophenyl)((R)-1-((S)-1-(4-hydroxycyclohexyl)-3-(methylamino)propan-2-ylcarbamoyl)piperidin-3-yl)methoxy)ethylcarbamate] the value was more than 50 nM.
For `CNC[C@H](CC1CCOCC1)NC(=O)N1CCCC([C@@H](OCCNC(=O)OC)c2c(C)ccc(F)c2F)C1` (stereo partly drawn) [I*-115a, methyl 2-((R)-(2,3-difluoro-6-methylphenyl)(1-((S)-1-(methylamino)-3-(tetrahydro-2H-pyran-4-yl)propan-2-ylcarbamoyl)piperidin-3-yl)methoxy)ethylcarbamate] the value was less than 10 nM; for `CNC[C@H](CN1CCCCC1=O)NC(=O)N1CCC[C@@H]([C@@H](OCCNC(=O)OC)c2cccc(Cl)c2)C1` [I*-93a, methyl 2-((R)-(3-chlorophenyl)((R)-1-((R)-1-(methylamino)-3-(2-oxopiperidin-1-yl)propan-2-yl-carbamoyl)piperidin-3-yl)methoxy)ethylcarbamate], more than 50 nM.
In the case of `CNCC(C[C@H]1C[C@@H](C)O[C@@H](C)C1)NC(=O)N1CCC[C@@H]([C@@H](OCCNC(=O)OC)c2cccc(Cl)c2)C1` (stereo partly drawn) [I*-132a, methyl 2-((R)-(3-chlorophenyl)((R)-1-((S)-1-((2S,4r,6R)-2,6-dimethyl-tetrahydro-2H-pyran-4-yl)-3-(methylamino)propan-2-ylcarbamoyl)piperidin-3-yl)methoxy)ethylcarbamate], the half-maximal inhibitory concentration (IC50) was more than 50 nM.
For the compound `CNC[C@@H](NC(=O)N1CCC[C@@H]([C@@H](OCCNC(=O)OC)c2cccc(Cl)c2)C1)[C@@H](O)C1CCCC1` [I*-67a, methyl 2-((R)-(3-chlorophenyl)((R)-1-((1S,2R)-1-cyclopentyl-1-hydroxy-3-(methylamino)propan-2-ylcarbamoyl)piperidin-3-yl)methoxy)ethylcarbamate], the IC50 is less than 10 nM.
For `CNC[C@H](CC1CCCCC1)NC(=O)N1CCC[C@@H]([C@@H](OCCNC(=O)OC)c2c(C)ccc(F)c2F)C1` [I*-96a, methyl 2-((R)-((R)-1-((S)-1-cyclohexyl-3-(methylamino)propan-2-ylcarbamoyl)piperidin-3-yl)(2,3-difluoro-6-methylphenyl)methoxy)ethylcarbamate] the value was less than 10 nM; for `CNC[C@H](CC1CCC(F)(F)CC1)NC(=O)N1CCC[C@@H]([C@@H](OCCNC(=O)OC)c2cccc(F)c2)C1` [I*-120a, methyl 2-((R)—((R)-1-((S)-1-(4,4-difluorocyclohexyl)-3-(methylamino)propan-2-ylcarbamoyl)piperidin-3-yl)(3-fluorophenyl)methoxy)ethylcarbamate], less than 1 nM.
Take `CC[C@@H](NC)[C@H](CC1CCCCC1)NC(=O)N1CCC[C@@H]([C@@H](OCCNC(=O)OC)c2cccc(Cl)c2)C1` [I*-130a, methyl 2-((R)-(3-chlorophenyl)((R)-1-((2S,3R)-1-cyclohexyl-3-(methylamino)pentan-2-ylcarbamoyl)piperidin-3-yl)methoxy)ethylcarbamate]: the half-maximal inhibitory concentration (IC50) is less than 20 nM.
As for `CNC[C@H](C[C@H]1CCCCOC1)NC(=O)N1CCC[C@@H]([C@@H](OCCNC(=O)OC)c2cccc(F)c2)C1` [I*-55a, methyl 2-((R)-(3-fluorophenyl)((R)-1-((S)-1-(methylamino)-3-((R)-oxepan-3-yl)propan-2-ylcarbamoyl)piperidin-3-yl)methoxy)ethylcarbamate], the concentration for half-maximal inhibition (IC50) is less than 1 nM.
As to `CCC[C@](OCCNC(=O)OC)(c1cccc(Cl)c1)[C@@H]1CCCN(C(=O)N[C@H](CNC)CC2CCCCC2)C1` [I*-150a, methyl 2-((R)-1-(3-chlorophenyl)-1-((R)-1-((S)-1-cyclohexyl-3-(methylamino)propan-2-ylcarbamoyl)piperidin-3-yl)butoxy)ethylcarbamate], the IC50 was less than 50 nM.
For `CCNC(=O)CO[C@@H](c1cccc(Cl)c1)[C@@H]1CCCN(C(=O)N[C@H](CNC)CC2CCOCC2)C1` [I*-31a, (R)-3-((R)-(3-chlorophenyl)(2-(ethylamino)-2-oxoethoxy)methyl)-N—((S)-1-(methylamino)-3-(tetrahydro-2H-pyran-4-yl)propan-2-yl)piperidine-1-carboxamide] the value was more than 50 nM; for `COC(=O)NCCO[C@@H](c1cccc(Cl)c1)[C@@H]1CCCN(C(=O)N[C@H]2CNC[C@@H]2CC(C)C)C1` (relative stereo) [I*-11a, methyl 2-((R)-(3-chlorophenyl)((R)-1-((3R*,4S*)-4-isobutylpyrrolidin-3-ylcarbamoyl)piperidin-3-yl)methoxy)ethylcarbamate], less than 50 nM.
Consider `CNC[C@H](CC1CCOCC1)NC(=O)N1CCC[C@@H]([C@@](C)(OCCNC(=O)OC)c2cccc(Cl)c2)C1` [I*-103a, methyl 2-((R)-1-(3-chlorophenyl)-1-((R)-1-((S)-1-(methylamino)-3-(tetrahydro-2H-pyran-4-yl)propan-2-ylcarbamoyl)piperidin-3-yl)ethoxy)ethylcarbamate], for which the half-inhibitory concentration (IC50) was less than 20 nM.
For `CNC[C@H](CC1CCOCC1)NC(=O)N1CCC[C@@H]([C@@H](OCCNC(=O)OC)c2cccs2)C1` [I*-15a, methyl 2-((R)-((R)-1-((S)-1-(methylamino)-3-(tetrahydro-2H-pyran-4-yl)propan-2-ylcarbamoyl)piperidin-3-yl)(thiophen-2-yl)methoxy)ethylcarbamate], the IC50 was more than 50 nM.
As for `CNC[C@H](CC1CCC(F)(F)CC1)NC(=O)N1CCC[C@@H]([C@@H](OCCNC(=O)OC)c2cccc(Cl)c2)C1` [I*-146a, methyl 2-((R)-(3-chlorophenyl)((R)-1-((S)-1-(4,4-difluorocyclohexyl)-3-(methylamino)propan-2-ylcarbamoyl)piperidin-3-yl)methoxy)ethylcarbamate], the half-maximal inhibitory concentration (IC50) is less than 1 nM.
Regarding `CCNC[C@H](CC1CCCCC1)NC(=O)N1CCC[C@@H]([C@@H](OCCNC(=O)OC)c2cccc(F)c2)C1` [I*-41a, methyl 2-((R)-((R)-1-((S)-1-cyclohexyl-3-(ethylamino)propan-2-ylcarbamoyl)piperidin-3-yl)(3-fluorophenyl)methoxy)ethylcarbamate], the half-inhibitory concentration (IC50) was less than 10 nM.
For the compound `CNC[C@H](CC1CCCCC1)NC(=O)N1CCC[C@@H]([C@@H](OCCNC(=O)OC)c2cc(F)ccc2C)C1` [I*-40a, methyl 2-((R)-((R)-1-((S)-1-cyclohexyl-3-(methylamino)propan-2-ylcarbamoyl)piperidin-3-yl)(5-fluoro-2-methylphenyl)methoxy)ethylcarbamate], the IC50 was less than 1 nM.
